# Test results taken from patent publication US9155752B2, “Liver function-improving agent” (UENO FINE CHEMICALS INDUSTRY, LTD., priority 2012, dated 2015).
# System: NASH mice
# Experiment: Oil Red staining of liver, fat accumulation area % (Test Example 3)
# Format: in vivo
# Settings: for Fat accumulation area %, Significant difference: Student-t, 5% level
# Excerpt: A solid diet CE-2 (lipid 4.6% by weight, manufactured by CLEA Japan, Inc.) was used as a normal diet. A solid diet, High Fat Diet 32 (lipid 32.0% by weight, sucrose 6.75% by weight, manufactured by CLEA Japan, Inc.), was used as a sucrose-containing high fat diet. As a maltitol-containing high-fat diet, a special diet (lipid 32.0% by weight, maltitol 6.08% by weight; manufactured by CLEA Japan, Inc.) obtained by replacing the total amount (6.75% by weight) of sucrose in a solid diet, High Fat Diet 32, with powdered maltitol (Whole Crystalline Maltitol Ueno 60M (purity of maltitol: 90%), manufactured by Ueno Fine Chemicals Industry Ltd.) was used. Sodium hypochlorite (PURELOX-S, manufactured by OYALOX Co., Ltd.) was added to pure water prepared by Elix-UV pure water producing apparatus, to a final concentration of 0.00009%, so that pure water for use in the test was obtained. An aqueous maltitol solution was prepared by dissolving powdered maltitol (Whole Crystalline Maltitol Ueno 60M (purity of maltitol: 90%), manufactured by Ueno Fine Chemicals Industry Ltd.) in pure water to a concentration of 1.8% (weight/volume). The purity of maltitol in the aqueous maltitol solution was 1.62%. Twenty-one female SPF mice (C57BL/6J, produced by CLEA Japan, Inc.) on day 14 of pregnancy were purchased and acclimation was performed. All animals were allowed to make a natural birth and a born male was used to produce a model. In addition, the weaning was at 4 weeks after birth. Streptozotocin (Sigma-Aldrich Japan K.K.) was adjusted to a concentration of 10 mg/mL with a physiological saline solution (manufactured by Otsuka Pharmaceutical Factory, Inc.) and the solution was subcutaneously administered once to the back of 2-day-old male mice at a dose of 20 μL/mouse (200 μg/mouse). Afterwards, the mother animal took care of the baby until weaning. The weaning was on day 28±2 after birth. After the weaning, a normal diet was supplied ad libitum to animals receiving no streptozotocin (normal mice (group S1 and group 1)), and a sucrose-containing high fat diet was supplied ad libitum to animals receiving streptozotocin (NASH mice (group S2, group 2, group 3, and group 4). A normal diet was supplied ad libitum to normal mice (group 1). With respect to NASH mice, a sucrose-containing high fat diet was supplied ad libitum to the sucrose group (group 2), and a maltitol-containing high fat diet was supplied ad libitum to the maltitol-low dose group (group 3) and the maltitol-high dose group (group 4). An aqueous maltitol solution was supplied ad libitum only to the maltitol-high dose group (group 4) of 5 to 8 weeks of age, and pure water was supplied ad libitum to the groups other than group 4 of 5 to 8 weeks of age. Six male animals per group were assigned to groups S1 and S2, reared up to 5 weeks of age, and then necropsied. Eight male animals per group were assigned to groups 1, 2, 3 and 4, reared up to 8 weeks of age, and then necropsied. At scheduled necropsy of the animals of 5 or 8 weeks of age, all individuals were anesthetized with diethyl ether (manufactured by Sigma-Aldrich Japan K.K.) and a needle through which heparin sodium (Novo Heparin Injection 1000, manufactured by Mochida Pharmaceutical Co., Ltd.) had been passed was punctured to the heart to aspirate the whole blood, leading to euthanasia, followed by harvest of the organ. With respect to animals of 5 or 8 weeks of age at scheduled necropsy, the left outer lobe of the liver was immersed in a neutral formalin solution (manufactured by Wako Pure Chemical Industries, Ltd.) for fixation at room temperature for 24 hours, subjected to sucrose substitution, embedded in a tray for cryosection (CRYO DISH manufactured by Shoei Works Co., Ltd.) filled with O.C.T. compound (manufactured by Sakura Finetek Japan Co., Ltd.), immediately frozen with liquid nitrogen, and preserved at −80° C. for oil red staining. […]
Structure (SMILES),"Fat accumulation area %, Significant difference (Group 3 (low-dose maltitol) at 8 weeks vs group S2 at 5 weeks of age)","Fat accumulation area % (Oil Red staining), mean ± standard deviation (Group 3, low-dose maltitol: HFD32-M (maltitol 6.08%) + pure water from 5 to 8 weeks of age) [%]","Fat accumulation area %, Significant difference (Group 4 (high-dose maltitol) at 8 weeks vs group S2 at 5 weeks of age)","Fat accumulation area % (Oil Red staining), mean ± standard deviation (Group 4, high-dose maltitol: HFD32-M (maltitol 6.08%) + aqueous maltitol solution 1.62% from 5 to 8 weeks of age) [%]","Fat accumulation area %, Significant difference (Group 2 (sucrose) at 8 weeks vs group S2 at 5 weeks of age)","Fat accumulation area % (Oil Red staining), mean ± standard deviation (Group 2, sucrose group: HFD32 (sucrose 6.75%) + pure water, eight weeks of age) [%]"
OC[C@@H](O)[C@@H](O[C@H]1O[C@H](CO)[C@@H](O)[C@H](O)[C@H]1O)[C@H](O)[C@@H](O)CO [maltitol],significantly low and Yes,32.7 ± 7.6,significantly low and Yes,28.6 ± 5.5,,
"OC[C@H]1O[C@@](CO)(O[C@H]2O[C@H](CO)[C@@H](O)[C@H](O)[C@H]2O)[C@@H](O)[C@@H]1O [sucrose, reference compound]",,,,,a significant difference was not observed and No,34.7 ± 8.4
